Data reported in paper PMC2193054 (The Journal of Experimental Medicine, 1999).
Values joined by “and” are separate entries in the source; they are usually repeats but may differ in a detail not shown here. Equal entries are not always repeated. Where two headings read alike, the source gives them in different places. Marks after values point to notes of the source that are not given here.

Key:
[1] = test system: M. tuberculosis; format: cell-based
[2] = target: T1, M. tuberculosis glutamine synthetase (Mycobacterium tuberculosis, UniProt P9WN39); format: cell-based, M. tuberculosis Erdman
T1 sequence (P9WN39 2-478): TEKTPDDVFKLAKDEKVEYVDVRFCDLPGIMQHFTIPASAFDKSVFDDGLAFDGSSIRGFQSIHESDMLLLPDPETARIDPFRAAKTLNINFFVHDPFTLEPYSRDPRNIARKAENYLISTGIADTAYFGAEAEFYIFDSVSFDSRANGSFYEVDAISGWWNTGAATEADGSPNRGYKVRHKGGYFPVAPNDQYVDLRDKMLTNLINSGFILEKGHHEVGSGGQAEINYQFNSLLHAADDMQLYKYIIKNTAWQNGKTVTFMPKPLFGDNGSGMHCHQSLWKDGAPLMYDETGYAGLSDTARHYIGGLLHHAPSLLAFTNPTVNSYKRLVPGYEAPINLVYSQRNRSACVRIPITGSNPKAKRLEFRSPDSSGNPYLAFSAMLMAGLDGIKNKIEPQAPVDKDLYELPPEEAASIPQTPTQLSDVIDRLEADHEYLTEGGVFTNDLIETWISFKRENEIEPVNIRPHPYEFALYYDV

[3] = test system: M. smegmatis; format: cell-based
[4] = test system: M. avium (25291; ATCC); format: cell-based
[5] = test system: recombinant M. tuberculosis glutamine synthetase; format: cell-based, M. tuberculosis (expressed in M. smegmatis); details: 200 μM
[6] = target: T1, M. tuberculosis glutamine synthetase; format: cell-based, M. tuberculosis (expressed in M. smegmatis); details: 200 μM
[7] = test system: L. pneumophila Philadelphia 1; format: cell-based; details: 24 h
[8] = test system: γ-glutamylcysteine synthetase; details: in contrast to glutamine synthetase; cited from earlier work
[9] = target: T2, E. coli glutamine synthetase (Escherichia coli, UniProt P0A9C5); format: biochemical, E. coli W
T2 sequence (P0A9C5 2-469 limits assumed): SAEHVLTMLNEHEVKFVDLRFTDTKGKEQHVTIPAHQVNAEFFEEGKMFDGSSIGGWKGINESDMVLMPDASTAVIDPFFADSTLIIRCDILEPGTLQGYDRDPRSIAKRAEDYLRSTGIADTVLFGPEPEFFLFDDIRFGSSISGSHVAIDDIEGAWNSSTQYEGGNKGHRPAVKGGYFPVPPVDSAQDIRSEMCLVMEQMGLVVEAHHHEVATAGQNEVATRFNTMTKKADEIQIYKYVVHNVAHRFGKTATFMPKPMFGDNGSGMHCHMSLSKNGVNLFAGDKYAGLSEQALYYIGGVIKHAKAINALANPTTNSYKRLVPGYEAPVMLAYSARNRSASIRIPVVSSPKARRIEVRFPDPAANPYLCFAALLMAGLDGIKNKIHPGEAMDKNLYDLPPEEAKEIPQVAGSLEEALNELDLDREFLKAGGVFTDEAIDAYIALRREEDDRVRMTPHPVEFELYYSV

[10] = target: T1, M. tuberculosis glutamine synthetase; format: biochemical, M. tuberculosis Erdman
[11] = test system: M. tuberculosis Erdman; format: cell-based
[12] = test system: M. tuberculosis H37Rv; format: cell-based
[13] = test system: sheep brain glutamine synthetase; format: biochemical
[14] = test system: M. phlei; format: cell-based; details: 3 d
[15] = test system: E. coli DH5α; format: cell-based; details: 6 h
[16] = test system: M. tuberculosis superoxide dismutase; format: cell-based; details: 20 μM
[17] = test system: M. bovis; format: cell-based
[18] = test system: M. bovis BCG; format: cell-based
[19] = test system: THP-1 human monocytes
[20] = test system: M. tuberculosis Erdman; format: cell-based; remark: listed apart in the source
[21] = test system: M. avium; format: cell-based

CO[C@H]1/C=C/O[C@@]2(C)Oc3c(C)c(O)c4c(O)c(c(/C=N/N5CCN(C)CC5)c(O)c4c3C2=O)NC(=O)/C(C)=C\C=C\[C@H](C)[C@H](O)[C@@H](C)[C@@H](O)[C@@H](C)[C@H](OC(C)=O)[C@@H]1C [Rifampin, rifampin]
influence on the content of either poly-L-glutamate/glutamine or D,L-alanine [1]: little influence
D,L-Alanine ([1]; 0.0125 μg/ml): 23.6 μg/10^10 Cells
Poly-L-Glutamate/glutamine ([1]; 0.0125 μg/ml): 54.2 μg/10^10 Cells
D,L-Alanine ([1]; 0.05 μg/ml): 25.1 μg/10^10 Cells
Poly-L-Glutamate/glutamine ([1]; 0.05 μg/ml): 41.6 μg/10^10 Cells
D,L-Alanine ([1]; 0.2 μg/ml): 20.0^a μg/10^10 Cells
Poly-L-Glutamate/glutamine ([1]; 0.2 μg/ml): 40.0^a μg/10^10 Cells
effect on intracellular or extracellular glutamine synthetase activity [2]: negligible effect

CS(=N)(=O)CC[C@H](N)C(=O)O (stereo partly drawn) [L-methionine-S-sulfoximine]
growth rate of parent and recombinant M. smegmatis strain ([3]; 200 μM): unaffected
sensitivity of growth to the inhibitor ([3]; 3 d): insensitive
D,L-Alanine ([1]; 0.2 μM): 21.2 μg/10^10 Cells
Poly-L-Glutamate/glutamine ([1]; 0.2 μM): 18.2 μg/10^10 Cells
D,L-Alanine ([1]; 2 μM): 17.7 μg/10^10 Cells
Poly-L-Glutamate/glutamine ([1]; 2 μM): 9.8 μg/10^10 Cells
D,L-Alanine ([1]; 20 μM): 17.8 μg/10^10 Cells
Poly-L-Glutamate/glutamine ([1]; 20 μM): 6.1 μg/10^10 Cells
growth of intracellular bacteria ([4]; 2 μM): uninhibited
growth of intracellular bacteria ([4]; 200 μM): strongly inhibited
decrease of cell-associated glutamine synthetase activity (sum of endogenous and recombinant enzymes) [5]: 17%
decrease of extracellular glutamine synthetase activity of the recombinant strain [6]: 89%
sensitivity of growth to the inhibitor [7]: insensitive
nature of the inhibition of γ-glutamylcysteine synthetase [8]: reversible
remaining enzyme activity (% of initial activity) ([9]; 2 µM): < 10% and 3–10%
remaining enzyme activity (% of initial activity) ([9]; 20 μM): < 10%
remaining enzyme activity (% of initial activity) ([9]; 200 μM): ≤ 0.5%
remaining enzyme activity (% of initial activity) ([10]; 2 µM): < 10% and 3–10%
remaining enzyme activity (% of initial activity) ([10]; 20 μM): < 10%
remaining enzyme activity (% of initial activity) ([10]; 200 μM): ≤ 0.5%
effect on cell growth [11]: blocked cell growth almost immediately
growth [11]: completely inhibited
growth lag behind uninhibited cultures with L-glutamine added [11]: 0.4–1.3 log units
reversal of growth inhibition by L-glutamine [11]: almost complete
growth lag behind untreated control cultures ([11]; 0.2 μM): 0.1–0.2 log units
growth plateau below that of control cultures ([11]; 2 μM): ~2 log units
sensitivity of growth to the inhibitor ([11]; 0.2-200 μM): highly sensitive
sensitivity of growth to the inhibitor [12]: highly sensitive
inactivation at the highest dose of inhibitor [13]: not completely inactivated
remaining enzyme activity (% of initial activity) ([13]; 2 μM): ~40%
Ki ([13]; read-out: Ki L-Ms): 110 µM
effect on the quantity of glutamine synthetase protein exported [2]: no detectable effect
cell-associated glutamine synthetase activity (plateau) ([2]; 20 μM): ~50 mU
decrease of cell-associated glutamine synthetase activity from the uninhibited level ([2]; 20 μM): 14%
extracellular glutamine synthetase activity ([2]; 20 μM): ~4.5 mU
reduction of extracellular glutamine synthetase activity from the uninhibited level ([2]; 20 μM): 80%
sensitivity of growth to the inhibitor [14]: insensitive
sensitivity of growth to the inhibitor [15]: insensitive
activity or quantity of extracellular superoxide dismutase compared with untreated cultures [16]: no reduction
sensitivity of growth to the inhibitor [17]: highly sensitive
sensitivity of growth to the inhibitor [18]: highly sensitive
effect on morphology, doubling time, or viability [19]: no effect
growth of intracellular bacteria ([20]; 2 μM): slowed
growth of intracellular bacteria ([20]; 200 μM): strongly inhibited
sensitivity of growth to the inhibitor [21]: intermediate

CP(=O)(O)CCC(N)C(=O)O (racemic) [D,L-phosphinothricin]
remaining enzyme activity (% of initial activity) ([9]; 2 µM): < 10% and 3–10%
remaining enzyme activity (% of initial activity) ([9]; 20 μM): ≤ 0.5%
remaining enzyme activity (% of initial activity) ([9]; 200 μM): ≤ 0.5%
remaining enzyme activity (% of initial activity) ([10]; 2 µM): < 10% and 3–10%
remaining enzyme activity (% of initial activity) ([10]; 20 μM): ≤ 0.5%
remaining enzyme activity (% of initial activity) ([10]; 200 μM): ≤ 0.5%
cell density lag behind uninhibited cultures ([11]; 20, 200, 2,000 μM): 0.5–1.5 log units
inactivation at the highest dose of inhibitor [13]: not completely inactivated
remaining enzyme activity (% of initial activity) [13]: ~25%
remaining enzyme activity (% of initial activity) ([13]; 2 μM): 60%
Ki ([13]; read-out: Ki D,L-Ppt): 16.4 µM

NCC[C@H](O)C(=O)N[C@@H]1C[C@H](N)[C@@H](O[C@H]2O[C@H](CN)[C@@H](O)[C@H](O)[C@H]2O)[C@H](O)[C@H]1O[C@H]1O[C@H](CO)[C@@H](O)[C@H](N)[C@H]1O [Amikacin, amikacin]
influence on the content of either poly-L-glutamate/glutamine or D,L-alanine [1]: little influence
D,L-Alanine ([1]; 0.06 μg/ml): 29.1 μg/10^10 Cells
Poly-L-Glutamate/glutamine ([1]; 0.06 μg/ml): 49.9 μg/10^10 Cells
D,L-Alanine ([1]; 0.25 μg/ml): 26.3 μg/10^10 Cells
Poly-L-Glutamate/glutamine ([1]; 0.25 μg/ml): 43.2 μg/10^10 Cells
D,L-Alanine ([1]; 1 μg/ml): 12.0^a μg/10^10 Cells
Poly-L-Glutamate/glutamine ([1]; 1 μg/ml): 26.0^a μg/10^10 Cells

CC[C@@H](CO)NCCN[C@@H](CC)CO [ethambutol]
effect on intracellular or extracellular glutamine synthetase activity [2]: negligible effect

NC(=O)c1cnccn1 [pyrazinamide]
effect on intracellular or extracellular glutamine synthetase activity [2]: negligible effect

NNC(=O)c1ccncc1 [isoniazid]
effect on intracellular or extracellular glutamine synthetase activity [2]: negligible effect
